# Source: patent publication US8889671B2, “Compounds and methods for treating bacterial infections” (AstraZeneca AB, priority 2013, dated 2014)
# pIC50: −log10 of the molar value. Read-outs that look alike come from different tables or passages of the source.
# Columns and labels:
# Staphylococcus aureus = assay: Susceptibility testing (MIC) Assay 1, broth microdilution; assay type: cell-based; settings: Staphylococcus aureus
# Description: (§1) Minimum Inhibitory Concentrations (MICs) were determined by the broth microdilution method in accordance with the Clinical and Laboratory Standards Institute (CLSI) guidelines. In brief, organism suspensions were adjusted to a 0.5 McFarland standard to yield a final inoculum between 3×10^5 and 7×10^5 colony-forming units (CFU)/mL. Bacterial inocula were prepared for most organisms in sterile, cation adjusted Mueller-Hinton Broth (Beckton Dickinson). The streptococci were prepared as above in cation adjusted Mueller-Hinton Broth to which 2.5% lysed horse blood (Hema Resource & Supply Inc.) was added. An inoculum volume of 100 μL was added to wells (using a Tecan EVO robot) containing 2 μL of DMSO containing 2-fold serial dilutions of drug. All inoculated microdilution trays were incubated in ambient air at 35° C. for 18-24 hours. Following incubation, the lowest concentration of the drug that prevented visible growth as read at OD600 nm and confirmed by a visual read using a test reading mirror was recorded as the MIC. Performance of the assay was monitored by the use of laboratory quality-control strains and commercially available control compounds with defined MIC spectrums, in accordance with CLSI guidelines. Table 1 provides the MIC results (μM) of Examples 1-77 tested in Assay 1. Table 2 provides the MIC (μg/mL) results of Examples 78-80 tested in Assay 1.
# Streptococcus pneumoniae = assay: as above; assay type: cell-based
# Description: as §1
# Streptococcus pyogenes = assay: as above; assay type: cell-based; settings: Streptococcus pyogenes, Streptococcus pyrgenes, in vivo strain; read-out: Spy MIC
# Description: as §1
# [1] = biological target: Escherichia coli DNA gyrase A/B tetramer (Escherichia coli (strain K12), UniProt P0AES4+P0AES6); assay: DNA gyrase supercoiling activity fluorescence polarisation assay; assay type: biochemical; settings: Eco Gyr FP Mean IC50, E. coli DNA gyrase supercoiling, 0.3 mM ATP
# Description: In a black, 384-well polystyrene assay plate, 30 microliters/well of 5 nM Escherichia coli DNA gyrase A/B tetramer and 130 micrograms/mL of topologically relaxed plasmid containing the triplex-forming sequence
# in an assay buffer consisting of 35 mM Tris-HCl (pH 7.5), 24 mM KCl, 4 mM MgCl2, 2 mM dithiothreitol, 1.8 mM spermidine, 5% (v/v) glycerol, 200 nM bovine serum albumin, 0.8% dimethylsulfoxide, and 0.3 mM ATP were incubated at ambient temperature for (typically 30 minutes) in the absence or presence of 5-10 different concentrations of test compound. The supercoiling reactions were quenched by the addition of 10 microliters/well of 40 nM oligodeoxynucleotide probe in 3× triplex-forming buffer consisting of 150 mM NaCl, and 150 mM sodium acetate at pH 3.5. The oligodeoxynucleotide probe was 5′-BODIPY-FL-labeled
# After 60 minutes, the fluorescence anisotropy of the BODIPY-FL was measured in a Tecan Ultra plate reader, using 485 nm excitation and 535 nm emission filters equipped with polarizers. The IC50 was determined by nonlinear regression using two control reactions.
# Klebsiella pneumoniae = assay: Susceptibility testing (MIC) Assay 2, broth microdilution; assay type: cell-based; settings: clinical isolate, mucoid, read-out: Kpn MIC
# Description: (§2) Minimum Inhibitory Concentrations (MICs) were determined by the broth microdilution method in accordance with the Clinical and Laboratory Standards Institute (CLSI) guidelines. In brief, organism suspensions were adjusted to a 0.5 McFarland standard to yield a final inoculum between 3×10^5 and 7×10^5 colony-forming units (CFU)/mL. Bacterial inocula were generally prepared in sterile, cation adjusted Mueller-Hinton Broth (Becton Dickinson) which included Escherichia coli, Klebsiella pneumoniae, and Pseudomonas aeruginosa. Haemophilus influenzae bacterial inocula were prepared in sterile, cation adjusted Mueller-Hinton Broth (Becton Dickinson) containing 0.5% yeast extract (Becton Dickinson) plus 30 mL of 15 μg/mL Bovine Hematin stock (Sigma), and 3 mL of 15 μg/mL β-nicotinamide adenine dinucleotide (Sigma). Strains of Neisseria were tested for MICs using agar dilution methodology in accordance with CLSI guidelines. For broth microdilution testing, an inoculum volume of 100 μL was added to wells (using a Tecan EVO robot) containing 2 μL of DMSO containing 2-fold serial dilutions of drug. All inoculated microdilution panels were incubated in ambient air at 35° C. for 18-24 hours. Following incubation, the lowest concentration of the drug that prevented visible growth as read at OD600 nm and confirmed by a visual read using a test reading mirror was recorded as the MIC. Performance of the assay was monitored by the use of laboratory quality-control strains and commercially available control compounds with defined MIC spectrums, in accordance with CLSI guidelines. Table 3 provides the MIC results (μM) of Examples 1-77 tested in Assay 2. Table 4 provides the MIC (μg/mL) results of Examples 78-80 tested in Assay 2.
# Pseudomonas aeruginosa = assay: as above; assay type: cell-based; settings: PAO1, read-out: Pae MIC
# Description: as §2
# Escherichia coli = assay: as above; assay type: cell-based; settings: K12, read-out: Eco MIC
# Description: as §2
# Haemophilus influenzae = assay: as above; assay type: cell-based; settings: ATCC51907, Haemophilus influenzae, ATCC 51907, in vivo strain, read-out: Hin MIC
# Description: as §2
# [2] = Staphylococcus aureus in vivo strain, MSQS, read-out: Sau(d) MIC
# [3] = in vivo strain, MRQR, read-out: Sau(e) MIC
# [4] = in vivo strain (footnote b), read-out: Spn(b) MIC
# [5] = in vivo strain (footnote c), read-out: Spn(c) MIC
Compound,MIC (Staphylococcus aureus; [2]) [µM],MIC (Staphylococcus aureus; [3]) [µM],"MIC (Staphylococcus aureus; serum, read-out: Sau(f) MIC) [µM]",MIC (Streptococcus pneumoniae; [4]) [µM],MIC (Streptococcus pneumoniae; [5]) [µM],MIC (Streptococcus pyogenes) [µM],pIC50 [1],MIC (Klebsiella pneumoniae) [µM],MIC (Pseudomonas aeruginosa) [µM],MIC (Escherichia coli) [µM],MIC (Haemophilus influenzae) [µM]
CSC[C@H]1COC(=O)N1c1noc2c(F)c3c(cc12)CC1(C(=O)NC(=O)NC1=O)[C@H]1[C@H](C)O[C@H](C)CN31 [Example 45],< 0.2,0.39,0.78,0.39,0.55,0.39,6.59,200,> 200,25,0.39
C[C@@H]1CN(c2noc3c(Cl)c4c(cc23)CC2(C(=O)NC(=O)NC2=O)[C@H]2[C@H](C)O[C@H](C)CN42)C(=O)O1 [Example 22],< 0.2,0.78,0.78,0.39,0.39,0.39,6.68,200,> 200,12,0.78
"C[C@@H]1CN2c3c(cc4c(N5C(=O)OC[C@H]5Cc5ccccc5)noc4c3F)CC3(C(=O)NC(=O)NC3=O)[C@H]2[C@H](C)O1 [Example 10, (2R,4S,4aS)-8-[(4R)-4-Benzyl-2-oxo-1,3-oxazolidin-3-yl]-11-fluoro-2,4-dimethyl-1,2,4,4a-tetrahydro-2′H,6H-spiro[1,4-oxazino[4,3-a][1,2]oxazolo[4,5-g]quinoline-5,5′-pyrimidine]-2′,4′,6′(1′H,3′H)-trione]",6.2,12,200,50,50,25,5.17,> 200,> 200,> 200,25
"CON=C[C@H]1COC(=O)N1c1noc2c(F)c3c(cc12)CC1(C(=O)NC(=O)NC1=O)[C@H]1[C@H](C)O[C@H](C)CN31 [Example 42, (2R,4S,4aS)-11-Fluoro-8-{(4S)-4-[(methoxyimino)methyl]-2-oxo-1,3-oxazolidin-3-yl}-2,4-dimethyl-1,2,4,4a-tetrahydro-2′H,6H-spiro[1,4-oxazino[4,3-a][1,2]oxazolo[4,5-g]quinoline-5,5′-pyrimidine]-2′,4′,6′(1′H,3′H)-trione]",< 0.2,0.39,1.6,0.39,0.39,0.39,6.54,200,> 200,25,0.39
C[C@@H]1CN2c3c(cc4c(N5C(=O)OC[C@@H]5C(F)F)noc4c3F)CC3(C(=O)NC(=O)NC3=O)[C@H]2[C@H](C)O1 [Example 51],0.28,0.55,0.78,0.78,0.78,0.55,6.37,100,> 200,12,0.39
"C[C@@H]1CN2c3c(cc4c(N5C(=O)OC[C@@H]5c5ncccn5)noc4c3F)CC3(C(=O)NC(=O)NC3=O)[C@H]2[C@H](C)O1 [Example 64, (2R,4S,4aS)-11-fluoro-2,4-dimethyl-8-((S)-2-oxo-4-(pyrimidin-2-yl)oxazolidin-3-yl)-2,4,4a,6-tetrahydro-1H,1′H-spiro[isoxazolo[4,5-g][1,4]oxazino[4,3-a]quinoline-5,5′-pyrimidine]-2′,4′,6′(3′H)-trione]",6.2,25,25,12,6.2,6.2,< 5.68,> 200,> 200,> 200,3.1
"C[C@@H]1CN2c3c(cc4c(N5C(=O)OC[C@@H]5CCO)noc4c3F)CC3(C(=O)NC(=O)NC3=O)[C@H]2[C@H](C)O1 [Example 31, (2R,4S,4aS)-11-Fluoro-8-((S)-4-(2-hydroxyethyl)-2-oxooxazolidin-3-yl)-2,4-dimethyl-2,4,4a,6-tetrahydro-1H,1′H-spiro[isoxazolo[4,5-g][1,4]oxazino[4,3-a]quinoline-5,5′-pyrimidine]-2′,4′,6′(3′H)-trione]",3.1,12,3.1,0.78,0.78,0.39,6.38,> 200,> 200,100,0.39
"C[C@@H]1CN2c3c(cc4c(N5C[C@H](CO)OC5=O)noc4c3F)CC3(C(=O)NC(=O)NC3=O)[C@H]2[C@H](C)O1 [Example 37, (2R,4S,4aS)-11-Fluoro-8-[(5R)-5-(hydroxymethyl)-2-oxo-1,3-oxazolidin-3-yl]-2,4-dimethyl-1,2,4,4a-tetrahydro-2′H,6H-spiro[1,4-oxazino[4,3-a][1,2]oxazolo[4,5-g]quinoline-5,5′-pyrimidine]-2′,4′,6′(1′H,3′H)-trione]",3.1,25,6.2,0.39,0.78,0.39,6.92,> 200,> 200,200,0.39
COC[C@@H]1CN(c2noc3c(Cl)c4c(cc23)CC2(C(=O)NC(=O)NC2=O)[C@H]2[C@H](C)O[C@H](C)CN42)C(=O)O1 [Example 20],0.28,1.1,0.39,0.28,0.28,0.28,6.38,> 200,> 200,25,0.39
